Source: patent EP1377579B1 (Aventis Pharmaceuticals Inc., priority 2000, dated 2002)
pIC50: −log10 of the molar value. Counter-ions that a name gives are not always drawn.

Assays:
[1] = tested on: MDA-MB-435; assay: In vitro proliferation assay (MTT), MDA-MB-435; type: cell-based, human; conditions: Homo sapiens, MDA-MB-435, MTT assay; value (SD, n) where given; read-out: MB-435 Breast (IC50 µM)
Outline: (§1)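 Tetrazolium (MTT) reduction measures live cells remaining after 3 days with test compound, following overnight attachment at 1000–2500 cells/well. Dye is taken up in DMSO and read at 570 nm.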

[2] = target: cdk2/cyclin E (Homo sapiens, UniProt P24941); assay: Cyclin-dependent kinase assay, cdk2/cyclin E; conditions: CDK2 IC50, nM, GST-pRb substrate, 10 µM ATP
[3] = tested on: PC-3; assay: In vitro proliferation assay (MTT), PC-3; type: cell-based, human; conditions: Homo sapiens, PC-3, MTT assay; value (SD, n) where given; read-out: PC-3 Prostate (IC50 µM)
Outline: as §1

[4] = target: cdk1/cyclin B (Homo sapiens, UniProt P06493); assay: Cyclin-dependent kinase assay, cdk1/cyclin B; conditions: CDK1 IC50, nM, Histone H1, 10 µM ATP
Sequence of cdk1/cyclin B (P06493 whole entry): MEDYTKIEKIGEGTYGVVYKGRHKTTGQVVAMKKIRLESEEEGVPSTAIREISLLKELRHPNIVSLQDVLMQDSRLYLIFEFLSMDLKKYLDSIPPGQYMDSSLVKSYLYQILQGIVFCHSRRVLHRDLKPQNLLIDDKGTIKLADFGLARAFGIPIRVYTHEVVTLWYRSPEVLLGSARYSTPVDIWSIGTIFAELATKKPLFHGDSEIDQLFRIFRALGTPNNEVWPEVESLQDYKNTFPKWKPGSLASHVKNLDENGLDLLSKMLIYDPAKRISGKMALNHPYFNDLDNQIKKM
Sequence of cdk1/cyclin B (P14635 whole entry partner): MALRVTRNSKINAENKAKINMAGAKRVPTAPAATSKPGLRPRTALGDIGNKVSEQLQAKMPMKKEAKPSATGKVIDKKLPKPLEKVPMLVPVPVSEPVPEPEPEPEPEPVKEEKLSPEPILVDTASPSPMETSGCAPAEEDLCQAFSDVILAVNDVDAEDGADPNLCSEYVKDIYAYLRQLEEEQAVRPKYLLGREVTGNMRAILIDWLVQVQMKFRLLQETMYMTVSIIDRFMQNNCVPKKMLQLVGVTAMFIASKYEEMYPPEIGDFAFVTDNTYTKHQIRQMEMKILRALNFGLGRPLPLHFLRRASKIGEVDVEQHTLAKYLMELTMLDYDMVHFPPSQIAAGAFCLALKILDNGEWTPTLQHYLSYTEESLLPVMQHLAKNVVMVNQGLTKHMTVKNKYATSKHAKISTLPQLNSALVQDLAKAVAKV
Protocol: The IC50 values for cdk1/cyclin B, cdk2/cyclin E, and cdk4/cyclin D1 inhibition are determined using the following methods: • The cdk1 sequence (accession number Y00272) is amplified by PCR and cloned into the BamHI and SalI sites of pFASTBAC1 (Life Technologies).
The cyclin B1 sequence (accession number M25753) is amplified by PCR and cloned into the BamHI and SalI sites of pFASTBAC1 (Life Technologies).
The insect cell (Sf9) expression is optimized for each of the CDK/cyclin pairs according to the manufacturer's protocols (Life Technologies). For cdk4-HA/cyclin D1-His6 an infection of 0.1 multiplicity of infection (MOI) for 48 hours gives the best expression levels of the complex as well as activity.
The viruses are added to the cells and the culture is incubated at 27°C for the desired time. The cells are harvested by centrifugation at 3000 rpm for 10 minutes. The cells are snap frozen on dry ice and stored at - 80°C.
Cell extracts are made following a standard procedure. The cell pellet is resuspended in lysis buffer (50 mM HEPES, pH 8.0, 10 mM MgCl2, 1 mM DTT, 2.5 mM EGTA, 1 mM EDTA, 10 mM β-glycerophosphate, 1 mM sodium vanadate, 1 mM sodium fluoride, 1 x Protease inhibitor cocktail). The cells are lysed using the microfluidizer (Microfluidics) for 20 minutes. Cell debris is removed by centrifugation at 100,000 x g. The cell extracts are aliquoted in 1 ml aliquots, frozen on dry ice, and stored at -80°C.
The kinase reactions are performed following a standard procedure. The enzyme and inhibitor are diluted in kinase buffer (50 mM HEPES, pH 8.0, 10 mM MgCl2, 2.5 mM EGTA, 10 mM β-glycerophosphate, 1 mM sodium vanadate, 1 mM sodium fluoride, and 1 mM DTT) and pre-incubated for 30 minutes. […] The cdk1 enzyme activity is assayed using Histone H1 (Sigma) in the presence of 10 µM ATP for 30 min at room temperature. The reactions are terminated by the addition of 50 µL of 10 mM cold ATP to stop the reactions. The reactions are transferred to a pre-soaked 96-well multi-screen plate containing 30 µL of 100% TCA per well. After incubation for one hour at room temperature, the plates are washed twice with 200 µl of 20% TCA, followed by 200 µl of 10% TCA and finally with 200 µl of 5% TCA. After drying the plates at room temperature, the filter plates are placed in adapter plates (Packard) and 40 µl of Microscint-O® (Packard) is added to each well. Top Seal A film is used to cover the plates before counting in a Top Count Scintillation Counter.
The % remained activity of the indicated Cdk/cyclin kinase complex in the presence of inhibitor is calculated by the ratio of cpm in the presence of inhibitor to cpm in the absence of inhibitor (%Activity = vi/vo x 100%).

[5] = target: cdk4/cyclin D1 (Homo sapiens, UniProt P11802); assay: Cyclin-dependent kinase assay, cdk4/cyclin D1; type: biochemical; conditions: cyclin D1/cdk4; GST-pRb substrate, 10 µM ATP
Sequence of cdk4/cyclin D1 (P11802 whole entry): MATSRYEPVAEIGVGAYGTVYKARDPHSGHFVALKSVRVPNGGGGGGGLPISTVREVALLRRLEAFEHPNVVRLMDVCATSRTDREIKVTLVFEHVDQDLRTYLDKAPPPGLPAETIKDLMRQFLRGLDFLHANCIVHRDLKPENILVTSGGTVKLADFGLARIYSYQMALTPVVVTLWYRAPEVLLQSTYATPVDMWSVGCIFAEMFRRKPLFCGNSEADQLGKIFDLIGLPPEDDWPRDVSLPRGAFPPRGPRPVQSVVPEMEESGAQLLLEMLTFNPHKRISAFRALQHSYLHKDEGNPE
Sequence of cdk4/cyclin D1 (P24385 whole entry partner): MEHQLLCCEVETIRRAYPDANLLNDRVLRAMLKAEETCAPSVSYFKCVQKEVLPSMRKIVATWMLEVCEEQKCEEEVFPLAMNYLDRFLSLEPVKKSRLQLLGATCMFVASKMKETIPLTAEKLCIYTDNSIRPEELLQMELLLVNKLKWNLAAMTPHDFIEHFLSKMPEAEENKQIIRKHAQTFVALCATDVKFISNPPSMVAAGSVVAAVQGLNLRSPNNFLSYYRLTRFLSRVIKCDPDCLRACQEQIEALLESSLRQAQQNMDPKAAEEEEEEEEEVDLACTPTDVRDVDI

SMILES	IC50 [1]	IC50 [2]	IC50 [3]	IC50 [4]	pIC50 [5]
N[C@H]1CC[C@H](Nc2nc(NC3CCN(S(=O)(=O)c4ccc(Br)cc4)CC3)c3ncn(C4CCCC4)c3n2)CC1 [compound 114, trans-N^2-(4-Amino-cyclohexyl)-9-cyclopentyl-N^6-[1-(4-bromo-benzenesulfonyl)-piperidin-4-yl]-9H-purine-2,6-diamine dihydrochloride]	0.33 µM	15 nM	0.48 µM	5 nM	7.10
CC(=O)Nc1ccc(S(=O)(=O)N2CCC(Nc3nc(N[C@H]4CC[C@H](N)CC4)nc4c3ncn4C3CCCC3)CC2)cc1 [compound 115, trans-N-(4-{4-[2-(4-Amino-cyclohexylamino)-9-cyclopentyl-9H-purin-6-ylamino]-piperidine-1-sulfonyl}-phenyl)-acetamide dihydrochloride]	4.24 µM	5 nM	5.1 µM	5 nM	7.85
N[C@H]1CC[C@H](Nc2nc(NC3CCN(S(=O)(=O)c4ccc5ccccc5c4)CC3)c3ncn(C4CCCC4)c3n2)CC1 [compound 116, trans-N^2-(4-Amino-cyclohexyl)-9-cyclopentyl-N^6-[1-(naphthalene-2-sulfonyl)-piperidin-4-yl]-9H-purine-2,6-diamine dihydrochloride]	0.64 µM	32 nM	1.15 µM	18 nM	6.42
N[C@H]1CC[C@H](Nc2nc(NC3CCN(S(=O)(=O)/C=C/c4ccccc4)CC3)c3ncn(C4CCCC4)c3n2)CC1 [compound 118, trans-N^2-(4-Amino-cyclohexyl)-9-cyclopentyl-N^6-[1-((E)-2-phenyl-ethenesulfonyl)-piperidin-4-yl]-9H-purine-2,6-diamine dihydrochloride]	0.28 µM	38 nM	0.38 µM	22 nM	7.42
N[C@H]1CC[C@H](Nc2nc(NC3CCN(S(=O)(=O)Cc4ccccc4)CC3)c3ncn(C4CCCC4)c3n2)CC1 [compound 119, trans-N^2-(4-Amino-cyclohexyl)-9-cyclopentyl-N^6-(1-phenylmethanesulfonyl-piperidin-4-yl)-9H-purine-2,6-diamine dihydrochloride]	0.4 µM	31 nM	0.52 µM	25 nM	7.19
N[C@H]1CC[C@H](Nc2nc(NC3CCN(S(=O)(=O)c4c(Cl)cccc4Cl)CC3)c3ncn(C4CCCC4)c3n2)CC1 [compound 121, trans-N^2-(4-Amino-cyclohexyl)-9-cyclopentyl-N^6-[1-(2,6-dichloro-benzenesulfonyl)-piperidin-4-yl]-9H-purine-2,6-diamine dihydrochloride]	0.66 µM	50 nM	0.82 µM	120 nM	7.08
N[C@H]1CC[C@H](Nc2nc(NC3CCN(S(=O)(=O)c4ccc(I)cc4)CC3)c3ncn(C4CCCC4)c3n2)CC1 [compound 122, trans-N^2-(4-Amino-cyclohexyl)-9-cyclopentyl-N^6-[1-(4-iodo-benzenesulfonyl)-piperidin-4-yl]-9H-purine-2,6-diamine dihydrochloride]	0.48 µM	38 nM	0.65 µM	10 nM	6.23
Cc1ccc(S(=O)(=O)N2CCC(Nc3nc(N[C@H]4CC[C@H](N)CC4)nc4c3ncn4C3CCCC3)CC2)cc1 [compound 124, trans-N^2-(4-Amino-cyclohexyl)-9-cyclopentyl-N^6-[1-(toluene-4-sulfonyl)-piperidin-4-yl]-9H-purine-2,6-diamine dihydrochloride]	0.44 µM	26 nM	0.56 µM	10 nM	7.11
CC(C)S(=O)(=O)N1CCC(Nc2nc(N[C@H]3CC[C@H](N)CC3)nc3c2ncn3C2CCCC2)CC1 [compound 125, trans-N^2-(4-Amino-cyclohexyl)-9-cyclopentyl-N^6-[1-(propane-2-sulfonyl)-piperidin-4-yl]-9H-purine-2,6-diamine dihydrochloride]	1.03 µM	38 nM	1.29 µM	180 nM	7.21
N[C@H]1CC[C@H](Nc2nc(NC3CCN(S(=O)(=O)c4ccc(C(=O)O)cc4)CC3)c3ncn(C4CCCC4)c3n2)CC1 [compound 126, trans-4-{4-[2-(4-Amino-cyclohexylamino)-9-cyclopentyl-9H-purin-6-ylamino]-piperidine-1-sulfonyl}-benzoic acid dihydrochloride]	19.7 µM	6 nM	16.8 µM	20 nM	7.26
N[C@H]1CC[C@H](Nc2nc(NC3CCN(S(=O)(=O)c4cccc([N+](=O)[O-])c4)CC3)c3ncn(C4CCCC4)c3n2)CC1 [compound 127, trans-N^2-(4-Amino-cyclohexyl)-9-cyclopentyl-N^6-[1-(3-nitro-benzenesulfonyl)-piperidin-4-yl]-9H-purine-2,6-diamine dihydrochloride]	0.61 µM	17 nM	0.62 µM	14 nM	7.32
CCCCS(=O)(=O)N1CCC(Nc2nc(N[C@H]3CC[C@H](N)CC3)nc3c2ncn3C2CCCC2)CC1 [compound 129, trans-N^2-(4-Amino-cyclohexyl)-N^6-[1-(butane-1-sulfonyl)-piperidin-4-yl]-9-cyclopentyl-9H-purine-2,6-diamine dihydrochloride]	0.46 µM	9 nM	0.64 µM	60 nM	7.22
CC(C)(C)c1ccc(S(=O)(=O)N2CCC(Nc3nc(N[C@H]4CC[C@H](N)CC4)nc4c3ncn4C3CCCC3)CC2)cc1 [compound 130, trans-N^2-(4-Amino-cyclohexyl)-N^6-[1-(4-tert-butyl-benzenesulfonyl)-piperidin-4-yl]-9-cyclopentyl-9H-purine-2,6-diamine dihydrochloride]	0.8 µM	53 nM	2.29 µM	8 nM	6.80
CCCS(=O)(=O)N1CCC(Nc2nc(N[C@H]3CC[C@H](N)CC3)nc3c2ncn3C2CCCC2)CC1 [compound 131, trans-N^2-(4-Amino-cyclohexyl)-N^6-[1-(propane-1-sulfonyl)-piperidin-4-yl]-9-cyclopentyl-9H-purine-2,6-diamine dihydrochloride]	0.89 µM	17 nM	1.48 µM	100 nM	7.15
N[C@H]1CC[C@H](Nc2nc(NC3CCN(S(=O)(=O)CC(F)(F)F)CC3)c3ncn(C4CCCC4)c3n2)CC1 [compound 133, trans-N^2-(4-Amino-cyclohexyl)-9-cyclopentyl-N^6-[1-(2,2,2-trifluoro-ethanesulfonyl)-piperidin-4-yl]-9H-purine-2,6-diamine dihydrochloride]	9.1 µM	55 nM	8.97 µM	200 nM	7.07
N[C@H]1CC[C@H](Nc2nc(NC3CCN(S(=O)(=O)c4ccc(OC(F)(F)F)cc4)CC3)c3ncn(C4CCCC4)c3n2)CC1 [compound 134, trans-N^2-(4-Amino-cyclohexyl)-9-cyclopentyl-N^6-[1-(4-trifluoromethoxy-benzenesulfonyl)-piperidin-4-yl]-9H-purine-2,6-diamine dihydrochloride]	0.46 µM	35 nM	0.76 µM	200 nM	7.08
